Experimental data: patent US20220288277A1, “SURFACE COATINGS AND IMPLANTABLE DEVICES COMPRISING DIMERIC STEROID PRODRUGS, AND USES THEREOF” (Ripple Therapeutics Corporation, priority 2019, published 2022)

How the values were obtained:
[1] = Drug release from coated surfaces and extruded cylinders in PBS at 37 C, monitored by HPLC; format: physicochemical
Source text: As stated herein, “t50” is the time at which 50% of the releasable drug has been released from a surface coating or drug depot of the disclosure. Time t10 is, correspondingly, the time at which 10% of the releasable drug has been released from a surface coating or drug depot of the disclosure. When the release curve is perfectly linear, t10=⅕ of t50. When there is an initial burst of released drug, t10 is much less than ⅕ of t50. In the compositions and methods of the disclosure t10 can be equal to or greater than 1/10 of t50. Drug release from a surface coating, drug depot, or compound of the disclosure can be measured at 37° C. in 100% bovine serum, or at 37° C. in PBS (phosphate buffered saline), as described in Example 1.
Different substrates including poly(styrene-block-isobutylene-block-styrene) (SIBS) films, titanium coupons, and fibrous Dacron (polyethylene terephthalate) meshes (FIG. 2A) were coated with compound 1 from acetone by drop coating (FIG. 2B) forming an amorphous (glassy) coating. […] The bottom of a glass vial was coated with compound 1 and dexamethasone from dichloromethane (DCM) using the drop coating method.
Compound 2 was dissolved in DCM and was drop coated onto the bottom of a glass vial and solvent was evaporated to form the surface coating. Drug release was carried out in PBS at 37 C with buffer changes and was monitored by HPLC.
Compound 3 was dissolved in DCM and was drop coated onto the bottom of a glass vial and solvent was evaporated to form the surface coating. Drug release was carried out in PBS at 37 C with buffer changes and was monitored by HPLC.
Compound 1 was formed into cylinders by heat extrusion from the intermediate glassy state by pre-melting compound 1 prior to extrusion. In vitro drug release was carried out in PBS at 37 C and drug release was quantified by HPLC. […] The cylinders can be used as a drug depot within a medical device or injected adjacent to the medical device to release dexamethasone.

[2] = Coating retention / drug release from coated substrates in 100% FBS at 37 C, HPLC; format: physicochemical
Protocol: Compound 1 was drop coated with the same total amount of compound 1 from an organic solution (acetone) onto SIBS films, Dacron films, and fibrous Dacron meshes, and drug release was carried out in 100% FBS at 37 C. The coating was extracted from the substrates at different time points and was plotted as a percentage of coating retained over time (FIG. 4).
Substrates coated with Compound 1 by drop coating or spray coating were incubated in fetal bovine serum (FBS) to determine the amount of Compound 1 retained over time. Each coated substrate was placed in a glass vial containing 4 mL FBS and incubated at 37° C. on a rotating platform. After 1 to 4 days, the remaining coating was extracted and was determined by HPLC (FIG. 9). The amount of Compound 1 retained following 1-day incubation in FBS ranged from 15 to 100% of the initial amount loaded and roughly correlated with thickness (total loading) of the coating.
Drug release was carried out in 100% FBS and agitation at 37 C with buffer changes and was monitored by HPLC.

[3] = Ethylene oxide (ETO) gas sterilization of coated fibrous Dacron meshes, purity and drug release pre- and post-ETO; format: physicochemical; details: ETO gas at 55° C.
Protocol: Compound 1 coated onto fibrous Dacron meshes were sterilized by ethylene oxide (ETO) gas at a temperature of 55° C. […] Drug release was carried out in PBS at 37 C.

[4] = tested on: skin surrounding the injection sites; assay: Rat study with spray coated substrates injected into the dorsal subcutaneous space; format: in vivo, male SD rats; details: highest coating amount (23.3 μg dexamethasone), day 14
Protocol: Coatings of Compound 1 in various dexamethasone amounts (1.4-23.3 μg) were spray coated onto substrates as described in Example 4 and sterilized by ETO gas. Coated substrates were injected into the dorsal subcutaneous space of male SD rats with starting weights of 100-124 g (Envigo, Frederick, Md. USA). Animals were euthanized at 0, 3, 7 and 14 days and the skin surrounding the injection sites dissected. Coating remaining at each time point was quantified by HPLC.

[5] = tested on: device related foreign body reaction in the rat subcutaneous model; assay: Rat study of coated substrates, morphometric image analysis of CD68 stained cross-sections; format: in vivo, female Wistar rats; details: spray coated thin films or drop coated discs, days 3 and 7, compared to non-coated substrates
Protocol: Compound 1 was dissolved in acetone and spray coated onto thin films of a polymeric substrate or drop coated onto discs of a different polymeric substrate. Both coatings were dried at ambient conditions over night and sterilized using Ethylene oxide (ETO) gas. Coated substrates were then implanted into the dorsal subcutaneous space in female Wistar rats with starting weights of 250-290 g. Animals were euthanized at the peak of inflammatory phase in days 3 and 7. The cells in the surrounding area of both substrates were assessed by morphometric image analysis on cross-section of excised substrates with associated tissue that were stained for CD68 (inflammatory cell marker), ASMA (fibroblast marker) and DAPI ([…]). The number of recruited CD68 positive cells were reduced in response to both substrates coated with compound 1 compared to non-coated substrates. Thus, compound 1 suppresses inflammation in device related foreign body reaction and fibrosis in the rat subcutaneous model regardless of coating method or substrate.

[6] = tested on: device related fibrosis; assay: Rat study of coated polymeric discs, collagenous capsule wall thickness (Masson's Trichrome); format: in vivo, female Wistar rats; details: drop coated discs, subcutaneous, day 7 and day 21, versus non-coated implants
Source text: The coatings were dried at ambient conditions over night and sterilized using Ethylene oxide (ETO) gas. Coated substrates were then implanted into the dorsal subcutaneous space in female Wistar rats with starting weights of 250-290 g. Animals were euthanized at day 7 (inflammatory phase) and day 21 (fibrotic phase) to assess the tissue response to coated versus non-coated implants. The thickness of the collagenous capsule wall surrounding the implant was quantified by morphometric image analysis on cross-section of excised capsules with associated tissue that were stained with Masson's Trichrome.

[7] = In vitro drug release profiles from coated discs; format: physicochemical; details: coated discs (FIG. 18B)
[8] = Drug release profiles of heat press versus spray coated surface coatings; format: physicochemical; details: similar drug densities (8.2-8.3 μg/mm^2)
Protocol: Drug release profiles from Compound 1 surface coatings with similar drug densities (8.2-8.3 μg/mm^2) formed from the heat press process and spray coating process were similar (FIG. 16B), confirming that drug release is a material property and not influenced by coating technique.

[9] = Drug release from injectable cylinders in the subcutaneous tissue of rats; format: in vivo, male Sprague Dawley rats; details: cylinders 23G-32G, 2 mm, subcutaneous with suture, 7 and 28 days
Protocol: Cylinders of Compound 1 in various diameters (23G-32G) and 2 mm in length were processed as described in Example 1 and were loaded into needles with a piece of medical sutures as shown in FIG. 21A. The loaded needles were sterilized by ethylene oxide gas. The cylinders and sutures were injected into the dorsal subcutaneous space of male Sprague Dawley rats with starting weights of 100-124 g (Envigo, Frederick, Md. USA). Animals were euthanized at 7 and 28 days and the skin surrounding the injection sites were dissected. Pellet drug content at each time point was calculated from in-situ image analysis, confirmed by HPLC, and was plotted as cumulative drug release from the cylinders (FIG. 21C).

| Molecule | Drug release mechanism from extruded cylinders ([1]; cylinders extruded with 23G and 30G nozzles, PBS at 37 C) | Drug release from the coated surfaces ([1]; drop coated on SIBS, titanium, Dacron mesh, glass, PBS at 37 C) | Coating retained over time ([2]; drop coated on SIBS and Dacron films (thicker, lower surface area coating)) | Coating retained over time ([2]; drop coated on fibrous Dacron mesh (thin, high surface area coating)) | Coating purity pre- and post-ETO sterilization ([3]; fibrous Dacron meshes, HPLC) | Drug release pre- and post-ETO sterilization ([3]; release in PBS at 37 C) | Skin observation around the coated substrate [4] | Number of recruited CD68 positive cells [5] | Capsule wall diameter (fibrotic layer thickness) [6] | In vitro drug release profile [7] | Drug release profiles, heat press process versus spray coating process [8] | Cumulative drug release from the cylinders in vivo [9] | Cumulative drug release from the coated surface ([1]; drop coated from DCM onto glass vial, PBS at 37 C with buffer changes) |
| --- | --- | --- | --- | --- | --- | --- | --- | --- | --- | --- | --- | --- | --- |
| C[C@@H]1C[C@H]2[C@@H]3CCC4=CC(=O)C=C[C@]4(C)[C@@]3(F)[C@@H](O)C[C@]2(C)[C@@]1(O)C(=O)COC(=O)OCCOCCOCCOC(=O)OCC(=O)[C@@]1(O)[C@H](C)C[C@H]2[C@@H]3CCC4=CC(=O)C=C[C@]4(C)[C@@]3(F)[C@@H](O)C[C@@]21C [Compound 1, dexamethasone-triethylene glycol-dexamethasone] | surface erosion | slow, sustained drug release | lower and longer sustained release | quick release of coating from the surface | no changes | no changes in release properties | Skin bleaching was noted | reduced | statistically thinner | sustained release | similar | sustained dexamethasone release |  |
| dexamethasone-hexane-dexamethasone [Compound 4] |  |  |  |  |  |  |  |  | statistically thinner |  |  |  |  |
| hydrocortisone-triethylene glycol-hydrocortisone [Compound 2] |  |  |  |  |  |  |  |  |  |  |  |  | consistent drug release |
